We go through one molecule from US20100105864A1, “PROPHYLACTIC OR THERAPEUTIC AGENT FOR DIARRHEA” (priority 2007, published 2010).

Structures are written as SMILES.

The target of the assay is T1, human calcium receptor (Homo sapiens, UniProt P41180).
T1 construct: expressed in transfected cells; host or cells: Xenopus laevis oocytes injected with cRNA
T1 sequence (P41180 20-1078): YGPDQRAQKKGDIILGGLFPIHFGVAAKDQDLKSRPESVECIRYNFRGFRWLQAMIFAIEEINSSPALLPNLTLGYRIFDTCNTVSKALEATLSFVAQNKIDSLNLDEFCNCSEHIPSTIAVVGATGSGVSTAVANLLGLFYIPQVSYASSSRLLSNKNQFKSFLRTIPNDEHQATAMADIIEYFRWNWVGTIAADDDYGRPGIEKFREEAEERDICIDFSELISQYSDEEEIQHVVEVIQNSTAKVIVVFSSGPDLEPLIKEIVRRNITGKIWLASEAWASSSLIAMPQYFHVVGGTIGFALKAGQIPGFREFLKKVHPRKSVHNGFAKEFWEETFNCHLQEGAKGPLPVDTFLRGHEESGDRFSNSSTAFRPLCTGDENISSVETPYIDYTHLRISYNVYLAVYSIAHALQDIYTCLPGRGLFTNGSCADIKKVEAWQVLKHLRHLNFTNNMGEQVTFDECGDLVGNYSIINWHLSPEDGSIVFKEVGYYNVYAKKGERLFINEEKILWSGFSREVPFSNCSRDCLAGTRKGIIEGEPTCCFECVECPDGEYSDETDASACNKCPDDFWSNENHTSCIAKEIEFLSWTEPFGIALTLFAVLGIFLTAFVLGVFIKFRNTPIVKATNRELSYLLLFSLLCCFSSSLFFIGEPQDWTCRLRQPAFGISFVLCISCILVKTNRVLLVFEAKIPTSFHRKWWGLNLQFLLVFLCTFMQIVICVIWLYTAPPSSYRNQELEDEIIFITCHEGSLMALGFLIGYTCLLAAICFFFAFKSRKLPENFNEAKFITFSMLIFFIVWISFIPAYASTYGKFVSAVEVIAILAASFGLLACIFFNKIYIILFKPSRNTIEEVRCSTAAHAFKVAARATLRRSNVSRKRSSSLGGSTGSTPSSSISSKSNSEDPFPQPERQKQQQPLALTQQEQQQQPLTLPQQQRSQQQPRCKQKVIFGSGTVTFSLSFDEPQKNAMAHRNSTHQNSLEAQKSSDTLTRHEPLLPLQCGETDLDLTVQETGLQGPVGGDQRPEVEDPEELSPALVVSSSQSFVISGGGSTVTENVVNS
Briefly: Ca ion concentration-dependent Cl ionic current measurement in Xenopus laevis oocytes expressing the calcium receptor. The conditions noted are these: peptide added at 50 μM. Format: cell-based. As to the method:
For evaluation of the calcium receptor-activating action, a Ca ion concentration-dependent Cl ionic current measuring method using a Xenopus laevis oocyte expression system was used. If each activator is added to Xenopus laevis oocytes expressing the calcium receptor, intracellular Ca ions increase. Then, the Ca ion concentration-dependent Cl channel opens, and the intracellular current value changes as an ionic current. By measuring the change in the intracellular current value, whether the calcium receptor-activating action is present or not can be determined.
Specifically, the abdomen of Xenopus laevis was opened, and an egg batch was taken out and then treated with a 1% collagenase solution at 20° C. for 2 hours to obtain individual oocytes. Into the oocytes, 50 nl of 1 μg/μl receptor cRNA or 50 nl of sterilized water per oocyte were injected by using a micro glass capillary, and the oocytes were cultured at 18° C. for 2 to 3 days. For the culture, a solution obtained by adding 2 mM pyruvic acid, 10 U/ml penicillin, and 10 μg/ml streptomycin to the solution in Example 2 was used. After the culture, a test solution was added to the oocytes injected with cRNA or sterilized water. Electrophysiological measurement was performed by using an amplifier Geneclamp 500 (manufactured by Axon) and recording software AxoScope 9.0 (manufactured by Axon). The oocytes were membrane potential-clamped at −70 mV by the double electrode potential clamp method, and the intracellular current was measured via the Ca ion concentration-dependent Cl ion channel. The maximum value of the intracellular current was defined as the response current value. […]
The calcium receptor-activating action of L-amino acids was evaluated by using the method described in Example 13. That is, oocytes injected with cRNA of the calcium receptor or sterilized water were prepared, and membrane potential-clamped at −70 mV by the double electrode potential clamp method. To the potential-clamped oocytes, alanine (10 mM), arginine (10 mM), asparagine (10 mM), aspartic acid (10 mM), cysteine (10 mM), glutamine (10 mM), glutamic acid (10 mM), glycine (10 mM), histidine (10 mM), isoleucine (10 mM), leucine (10 mM), lysine (10 mM), methionine (10 mM), phenylalanine (10 mM), proline (10 mM), serine (10 mM), threonine (10 mM), tryptophan (10 mM), tyrosine (10 mM), valine (10 mM), ornithine (10 mM), taurine (10 mM), or hydroxyproline (10 mM) was added, and Ca ion concentration-dependent Cl response current was measured. […] As for the above-described amino acids, the activating action is reported in Proc. Natl. Acad. Sci. USA, Apr. 25, 2000, 97(9): 4814-9.
The calcium receptor-activating action of D-cysteine was evaluated by using the method described in Example 13. That is, oocytes injected with cRNA of the calcium receptor or sterilized water were prepared, and membrane potential-clamped at −70 mV by the double electrode potential clamp method. To the potential-clamped oocytes, D-cysteine (10 mM), L-cysteine (10 mM), D-tryptophan (10 mM), or L-tryptophan (10 mM) was added, and Ca ion concentration-dependent Cl response current was measured.
The calcium receptor-activating action of a peptide was evaluated by using the method described in Example 13. That is, oocytes injected with cRNA of the calcium receptor or sterilized water were prepared, and membrane potential-clamped at −70 mV by the double electrode potential clamp method.

Take `N[C@@H](CCC(=O)N[C@@H](CS)C(=O)NCC(=O)O)C(=O)O` [γ-Glu-Cys-Gly]: the “calcium receptor-activating action (Ca ion concentration-dependent Cl response current)” value was “definite calcium receptor-activating action”.
